Molecular target: T1, MAD2L1 (T24 cells; MAD2L1WT and mutants reconstituted in MAD2L1‐KD T24 cells) (Homo sapiens, UniProt Q13257)
T1 construct: MAD2L1 in human T24 cells: native, or WT / mutants re-expressed by lentivirus in knockdown cells; Western blot read-out
Assay: streptavidin pull-down, Western blot and MS
Type: biochemical
Conditions: labelled compound; T24 lysate, 4 °C; competed by excess unlabelled A2

T1 sequence (Q13257 2-205, change not shown): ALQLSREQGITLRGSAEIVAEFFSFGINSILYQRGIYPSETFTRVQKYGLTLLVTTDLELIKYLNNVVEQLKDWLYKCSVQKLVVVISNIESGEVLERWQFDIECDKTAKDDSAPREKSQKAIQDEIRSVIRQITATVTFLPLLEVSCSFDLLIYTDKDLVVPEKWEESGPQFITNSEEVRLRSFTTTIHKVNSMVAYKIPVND

For `CCc1c2c(nc3cccc(F)c13)-c1cc3c(c(=O)n1C2)COC(=O)[C@@]3(CC)OC(=O)CCCC[C@@H]1SC[C@@H]2NC(=O)N[C@@H]21` [A2‐biotin], the “streptavidin pull-down, Western blot and MS” value was “pull‐down/Western blot analysis demonstrated that A2‐biotin directly binds to MAD2L1”.

— article PMC12822473, “A Novel FGFR3‐Targeting Antibody‐Drug Conjugate Induces Tumor Cell Apoptosis through the cGAS–STING Pathway in Bladder Cancer” (Advanced Science, 2025)
